Test results: patent publication US20250275976A1, “Methods of Treating Neuroinflammatory Conditions” (Athira Pharma, Inc., priority 2022, published 2025)
Like-named read-outs stand apart in the source and are kept apart here.

Assays:
[1] = test system: Rat primary cortical neuron cultures; settings: LPS 24 h
Procedure: (§1) To assess the neuroprotective effect of compound treatment against inflammatory insult, primary cultured cortical neurons were subjected to lipopolysaccharide (LPS) treatment for 24h along with various compound doses of compounds of Formula (I) or Compound A19. […] Rat primary cortical neuron cultures were grown at 37° C., 5% C02 in Complete Neurobasal Medium supplemented with B27/GDNF/BDNF containing 10% FBS until maturity. 25 μl of culture volume were seeded in a 384-well plate at 5,000 cells/well, and treated with 1 μM, 100 nM, 10 nM, 1 nM, or 0.1 nM of test compound for 15 minutes. Cells were then subjected to 1 μM LPS challenge for 24 hours. Luminescence measurements to assess relative levels of ATP were performed on an Envision plate reader (Perkin Elmer). Data for DMSO control were set to 100% cell viability, and each group (n=4) were averaged and presented as mean±SEM.

[2] = test system: Rat primary cortical neuron cultures; experiment: Neuroprotection of rat primary cortical neurons against neurotoxic insults (Cell Titer-Glo viability); format: cell-based
Source text: HGF/MET signaling activation is expected to protect cells, including neurons, from cell death. […] Hydrogen peroxide (H2O2) treatment produces toxic oxidative stress. Bacteria-derived lipopolysaccharide (LPS) treatment induces inflammatory cell death. Treatment with excess glutamate (Glut) produces excitotoxicity in neuron cultures. Treatment with 1-methyl-4-phenylpyridinium (MPP^+) causes cell death by inhibition of mitochondrial function.
Cells were then subjected to individual conditional insults for 24 hours at the following concentrations: H2O2 at 1 uM, LPS at 1 uM, glutamate at 25 uM, or MPP+ at 500 uM. All treatments contained recombinant human HGF (R&D Systems) at a concentration of 5 ng/ml. MK-801 (Dizocilpine) is a pore blocker of the N-Methyl-D-aspartate (NMDA) receptor, a glutamate receptor, and was used as a positive control.
Data was normalized to DMSO+HGF control set at 100% cell viability.
Data are reported as statistical significance vs. insult control, with NS=not significant, +=p<0.05, ++=p<0.01, and +++=p<0.001.

[3] = test system: Rat primary cortical neuron cultures; experiment: Neuroprotection of rat cortical neurons against LPS challenge (Cell Titer-Glo); settings: at at least one dose tested
Procedure: as §1

[4] = test system: THP-1-differentiated macrophages; experiment: Pro-inflammatory cytokines in supernatants of LPS-challenged THP-1-differentiated macrophages; format: cell-based, human; set-up: key to Significant reduction in pro-inflammatory cytokine expression: IL-6 / Significant reduction in pro-inflammatory cytokine expression: TNF-α / Significant reduction in pro-inflammatory cytokine expression: IL-1β: “NS” indicates a non-significant reduction in the indicated cytokine; “+” indicates a p value <0.05 in Tukey post test; “++” indicates a p value <0.01 in Tukey post test; settings: for Significant reduction in pro-inflammatory cytokine expression: IL-1β / Significant reduction in pro-inflammatory cytokine expression: IL-6 / Significant reduction in pro-inflammatory cytokine expression: TNF-α: LPS 24 hrs
Source text: Neuroinflammation plays a crucial role in disease progression and is a complex phenomenon involving various cells that affect many extra- and intracellular signaling pathways and cytokine production. The macrophage of the brain (microglia) is the main agent of innate immunity in the CNS and performs various functions, including neuroprotection, in response to inflammatory signals. Activated microglia participate in developing neuroinflammation, responding to toxic exogenous substances (like LPS) or endogenous substances (like amyloid-beta). Here, THP-1 cells were used as an in-vitro cell model to evaluate mechanisms relevant to CNS inflammation. Differentiation with phorbol-12-myristate-13-acetate (PMA) causes THP-1 monocyte cells to acquire functional and morphological resemblance to macrophages. LPS interacts with THP-1 differentiated macrophage through the toll-like receptor 4, triggering the inflammatory response and stimulating pro-inflammatory cytokine release and eventually leading to cellular death. Test compounds were investigated for whether they have anti-inflammatory effects on LPS-challenged macrophage cultures. THP-1-differentiated macrophages were treated with test compounds for 20 minutes, followed by 24 hrs of LPS challenge. Culture supernatants were then collected to analyzed for the presence of pro-inflammatory cytokines: interleukin 1β (IL--1β), interleukin 6 (IL-6) and tumor necrosis factor α (TNF-α).
Cytokine quantification in cell culture supernatants was accomplished by homogeneous time resolved fluorescence (HTRF) kits to assess levels of IL-1β (Human IL-1β kit, #62HIL1BPEG, Cisbio) and IL-6 (Human IL-6 kit, 62HILO6PET, Cisbio), and by ELISA (Human TNF-α ELISA kit, KHC3011, ThermoFisher) to determine the levels of TNF-α.
Data analysis was performed via 1-way ANOVA with Tukey post-test compared to LPS treatment cultures using Prism statistical software (GraphPad). Tabular data indicates significance of reduction in culture supernatants for the indicated analyte at the indicated dose.

CCC(C)CN1CC2N(C(=O)c3ccc(C(F)(F)F)cc3)CCC(=O)N2[C@@H](C)C1=O (stereo partly shown) [Compound 1a]
Significance of neuroprotection vs 1 uM LPS ([1]; dose 0.1 nM): +++ (+++ indicates p<0.001) | Significance of neuroprotection vs 1 uM LPS ([1]; dose 1 nM): +++ (+++ indicates p<0.001) | Significance of neuroprotection vs 1 uM LPS ([1]; dose 10 nM): +++ (+++ indicates p<0.001) | Significance of neuroprotection vs 1 uM LPS ([1]; dose 100 nM): +++ (+++ indicates p<0.001) | Significance of neuroprotection vs 1 uM LPS ([1]; dose 1 μM): +++ (+++ indicates p<0.001) | Statistical significance vs. insult control (cell viability) ([2]; Glutamate (25 uM) insult, [Compound 1a] 0.1 nM + HGF (5 ng/ml)): +++ (+++=p<0.001) | Statistical significance vs. insult control (cell viability) ([2]; Glutamate (25 uM) insult, [Compound 1a] 1 nM + HGF (5 ng/ml)): +++ (+++=p<0.001) | Statistical significance vs. insult control (cell viability) ([2]; Glutamate (25 uM) insult, [Compound 1a] 100 nM (second column headed 100 nM) + HGF (5 ng/ml)): +++ (+++=p<0.001) | Statistical significance vs. insult control (cell viability) ([2]; Glutamate (25 uM) insult, [Compound 1a] 100 nM + HGF (5 ng/ml)): +++ (+++=p<0.001) | Statistical significance vs. insult control (cell viability) ([2]; Glutamate (25 uM) insult, [Compound 1a] 1 uM + HGF (5 ng/ml)): +++ (+++=p<0.001) | Statistical significance vs. insult control (cell viability) ([2]; H2O2 (1 uM) insult, [Compound 1a] 0.1 nM + HGF (5 ng/ml)): +++ (+++=p<0.001) | Statistical significance vs. insult control (cell viability) ([2]; H2O2 (1 uM) insult, [Compound 1a] 1 nM + HGF (5 ng/ml)): +++ (+++=p<0.001) | Statistical significance vs. insult control (cell viability) ([2]; H2O2 (1 uM) insult, [Compound 1a] 100 nM (second column headed 100 nM) + HGF (5 ng/ml)): +++ (+++=p<0.001) | Statistical significance vs. insult control (cell viability) ([2]; H2O2 (1 uM) insult, [Compound 1a] 100 nM + HGF (5 ng/ml)): +++ (+++=p<0.001) | Statistical significance vs. insult control (cell viability) ([2]; H2O2 (1 uM) insult, [Compound 1a] 1 uM + HGF (5 ng/ml)): +++ (+++=p<0.001) | Neuroprotection against the cohort of insults (result in words) ([2]; H2O2, glutamate, LPS, MPP+, broad range of concentrations): effective neuroprotective treatment at a broad range of concentrations against the entire cohort of insults tested | Statistical significance vs. insult control (cell viability) ([2]; LPS (1 uM) insult, [Compound 1a] 0.1 nM + HGF (5 ng/ml)): +++ (+++=p<0.001) | Statistical significance vs. insult control (cell viability) ([2]; LPS (1 uM) insult, [Compound 1a] 100 nM (second column headed 100 nM) + HGF (5 ng/ml)): +++ (+++=p<0.001) | Statistical significance vs. insult control (cell viability) ([2]; LPS (1 uM) insult, [Compound 1a] 100 nM + HGF (5 ng/ml)): +++ (+++=p<0.001) | Statistical significance vs. insult control (cell viability) ([2]; LPS (1 uM) insult, [Compound 1a] 1 uM + HGF (5 ng/ml)): +++ (+++=p<0.001) | Statistical significance vs. insult control (cell viability) ([2]; MPP+ (500 uM) insult, [Compound 1a] 0.1 nM + HGF (5 ng/ml)): +++ (+++=p<0.001) | Statistical significance vs. insult control (cell viability) ([2]; MPP+ (500 uM) insult, [Compound 1a] 1 nM + HGF (5 ng/ml)): +++ (+++=p<0.001) | Statistical significance vs. insult control (cell viability) ([2]; MPP+ (500 uM) insult, [Compound 1a] 100 nM (second column headed 100 nM) + HGF (5 ng/ml)): +++ (+++=p<0.001) | Statistical significance vs. insult control (cell viability) ([2]; MPP+ (500 uM) insult, [Compound 1a] 100 nM + HGF (5 ng/ml)): +++ (+++=p<0.001) | Statistical significance vs. insult control (cell viability) ([2]; MPP+ (500 uM) insult, [Compound 1a] 1 uM + HGF (5 ng/ml)): +++ (+++=p<0.001) | Protection of primary neurons from LPS-stimulated inflammatory toxicity (in words) [3]: protected primary neurons from LPS-stimulated inflammatory toxicity | Expression of IL-1β and TNF-α (result in words) ([4]; at at least one tested dose): significantly reduced | Expression of IL-6 (result in words) ([4]; at at least one tested dose): significantly reduced | Significant reduction in pro-inflammatory cytokine expression: IL-1β ([4]; dose 0.1 nM): ++ (“++” indicates a p value <0.01 in Tukey post test) | Significant reduction in pro-inflammatory cytokine expression: IL-6 ([4]; dose 0.1 nM): NS | Significant reduction in pro-inflammatory cytokine expression: TNF-α ([4]; dose 0.1 nM): ++ (“++” indicates a p value <0.01 in Tukey post test) | Significant reduction in pro-inflammatory cytokine expression: IL-1β ([4]; dose 10 nM): ++ (“++” indicates a p value <0.01 in Tukey post test) | Significant reduction in pro-inflammatory cytokine expression: IL-6 ([4]; dose 10 nM): ++ (“++” indicates a p value <0.01 in Tukey post test) | Significant reduction in pro-inflammatory cytokine expression: TNF-α ([4]; dose 10 nM): ++ (“++” indicates a p value <0.01 in Tukey post test) | Significant reduction in pro-inflammatory cytokine expression: IL-1β ([4]; dose 1000 nM): ++ (“++” indicates a p value <0.01 in Tukey post test) | Significant reduction in pro-inflammatory cytokine expression: IL-6 ([4]; dose 1000 nM): + (“+” indicates a p value <0.05 in Tukey post test) | Significant reduction in pro-inflammatory cytokine expression: TNF-α ([4]; dose 1000 nM): ++ (“++” indicates a p value <0.01 in Tukey post test)
